Assay results as given in patent US20090010873A1, “Methods of Cell Therapy, Neurogenesis and Oligodendrogenesis” (YEDA RESEARCH AND DEVELOPMENT CO. LTD., priority 2004, published 2009).

Key:
APP/PS1 Tg mice [1] = assay: GA vaccination of APP/PS1 Tg mice: Morris water maze; assay type: in vivo, mouse; conditions: five weeks after first GA injection, vs untreated Tg mice
APP/PS1 Tg mice [2] = assay: GA vaccination of APP/PS1 Tg mice: hippocampal histology (plaques, microglia, neurons, neurogenesis); assay type: in vivo, mouse
Protocol: (xlviii) Glatiramer acetate vaccination. Each mouse was subcutaneously injected five times with a total of 100 μg of glatiramer acetate (GA (TV-5010), MW 13.5-18.5 kDa, average 16 kDa, Teva Pharmaceutical Industries Ltd., Petach Tikva, Israel), emulsified in 200 μl PBS×1, from experimental day 0 until day 24, twice during the first week and once a week thereafter.
(l) Administration of BrdU and tissue preparation. BrdU was dissolved by sonication in PBS and injected i.p. into each mouse (50 mg/kg body weight; 1.25 mg BrdU in 200 μl PBS×1). Starting from experimental day 22 after the first GA vaccination, BrdU was injected i.p. twice daily, every 12 h for 2.5 days, to label proliferating cells. Three weeks after the first BrdU injection the mice were deeply anesthetized and perfused transcardially, first with PBS and then with 4% paraformaldehyde. The whole brain was removed, postfixed overnight, and then equilibrated in phosphate-buffered 30% sucrose. Free-floating 30-μm sections were collected on a freezing microtome (Leica SM2000R) and stored at 4° C. prior to immunohistochemistry.
For immunohistochemistry, tissue sections were treated with a permeabilization/blocking solution containing 10% FCS, 2% bovine serum albumin, 1% glycine, and 0.05% Triton X-100 (Sigma-Aldrich, St. Louis). Tissue sections were stained overnight at 4° C. with specified combinations of the following primary antibodies: rat anti-BrdU (1:200; Oxford Biotechnology, Kidlington, Oxfordshire, UK), goat anti-DCX [doublecortin] (1:400; Santa Cruz Biotechnology), and mouse anti-NeuN [neuronal nuclear protein] (1:200; Chemicon, Temecula, Calif.). Secondary antibodies were FITC-conjugated donkey anti-goat, Cy-3-conjugated donkey anti-mouse, and Cy-3- or Cy-5-conjugated donkey anti-rat (1:200; Jackson ImmunoResearch, West Grove, Pa.). For labeling of microglia we used either CD11b (MAC1; 1:50; BD-Pharmingen) or FITC-conjugated Bandeiraea simplicifolia isolectin B4 (IB4, 1:50; Sigma-Aldrich, Rehovot). To detect expression of cell-surface MHC-II proteins we used anti-MHC-II Abs (rat, clone IBL-5/22; 1:50; Chemicon, Temecula, Calif.). To detect expression of human Aβ we used anti-Aβ (human amino-acid residues 1-17) (mouse, clone 6E10, Chemicon, Temecula, Calif.). Expression of IGF-I was detected by goat anti-IGF-I Abs (1:20; R&D Systems). Expression of TNF-α was detected by goat anti-TNF-α Abs (1:100; R&D Systems). T cells were detected with anti-CD3 polyclonal Abs (rabbit, 1:100; DakoCytomation, Calif.). Propidium iodide (1 μg/ml; Molecular Probes, Invitrogen, Carlsbad, Calif.) was used for nuclear staining.
For in-vivo experiments, the number of Aβ^+ plaques and CD11b^+/IB-4^+ microglia in the hippocampus were counted at 300-μm intervals from 6-8 coronal sections (30 μm) from each mouse. Neurogenesis in the DG was evaluated by counting of premature neurons (DCX^+), proliferating cells (BrdU^+), and newly formed mature neurons (BrdU^+/NeuN^+) in six coronal sections (30 μm) from each mouse. Specificity of BrdU^+/NeuN^+ co-expression was assayed using the confocal microscope (LSM 510) in optical sections at 1-μm intervals/. Cell counts, numbers of Aβ^+ plaques, plaque areas, and intensity of NeuN staining per unit area in the DG were evaluated automatically using Image-Pro Plus 4.5 software (Media Cybernetics).

glatiramer acetate [GA]
MWM performance (spatial learning/memory) (APP/PS1 Tg mice [1]): superior to that of the untreated Tg mice
number of Aβ plaques in hippocampus (APP/PS1 Tg mice [2]; 6 weeks later, vs untreated Tg mice): significantly fewer plaques
newly formed mature neurons (BrdU^+/NeuN^+) (APP/PS1 Tg mice [2]; compared to non-Tg littermates): similar
DCX^+ cells in dentate gyrus (APP/PS1 Tg mice [2]; relative to non-Tg littermates): slightly but significantly more
BrdU^+ cells in dentate gyrus (APP/PS1 Tg mice [2]; vs untreated Tg mice): significantly more BrdU^+ cells
CD11b^+ microglia (APP/PS1 Tg mice [2]; vs untreated Tg mice): significantly fewer CD11b^+ microglia
area occupied by the plaques (APP/PS1 Tg mice [2]; vs untreated Tg mice): significantly smaller
staining for NeuN (APP/PS1 Tg mice [2]; vs untreated Tg mice): significantly more intense staining for NeuN
